Values quoted from earlier work in patent publication US20250304714A1, “Methods of Treating Metastatic Castration-Resistant Prostate Cancer with Bispecific Anti-PSMA x Anti-CD3 Antibodies Alone or in Combination with Anti-PD-1 Antibodies” (Regeneron Pharmaceuticals, Inc., priority 2022, published 2025).

Assays:
[1] = multiple phase 1 to 3 studies, prostate cancer patients; cited from earlier work
[2] = intended dose ˜9±1 mCi per IV injection; cited from earlier work

Structure (SMILES): O=C(O)CC[C@H](NC(=O)N[C@@H](CCCCNC(=O)c1ccc(F)nc1)C(=O)O)C(=O)O [DCFPyL]
- tolerability [1]: well tolerated
- Radiation dose from the PET/CT scan [2]: about 7.4 mSv
